Test systems include HT-29; SR; T47D; TK-10; MCF7; BT-549; Malme-3M; UACC-62; OVCAR-8; NCI-H460; Hs-578T; MDA-MB-435; EKVX; M14; HL-60; CCRF-CEM; SNB-19; OVCAR-3; KM12; LXFL 529.
What all share (assay): growth of human tumour cells (NCI), 48 h

SMILES strings stand for the structures.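 Cultured in 96-well plates, cells were exposed to test compound for 48 hours across five concentrations. GI50 = concentration required for 50% inhibition of growth.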 The source made the active and inactive calls. Rule as the data show it: active = GI50 up to about 1.1 µM and inactive = higher.

`O=[N+]([O-])/C(C(Cl)=C(Cl)Cl)=C(/Sc1ccccc1)N1CCCCC1`: the GI50 is > 100 µM (inactive) in the test with HT-29; 2.79 µM (inactive) in the test on SR; 11.9 µM (inactive) in the test on T47D; > 100 µM (inactive) with TK-10; > 100 µM (inactive) in the test with MCF7; > 100 µM (inactive) in the test on BT-549. Moreover, the GI50 with Malme-3M was 19.8 µM (inactive); in the test on UACC-62, 13.9 µM (inactive); in the test with OVCAR-8, > 58.2 µM (inactive); in the test with NCI-H460 it was > 100 µM (inactive); in the test on Hs-578T it was 67 µM (inactive); in the test on MDA-MB-435, > 36.7 µM (inactive). Besides, the GI50 in the test on EKVX was > 91.4 µM (inactive); in the test with M14, > 69.2 µM (inactive); in the test with HL-60 it was 2.24 µM (inactive); in the test on CCRF-CEM, 4.74 µM (inactive); in the test on SNB-19 it was > 58.7 µM (inactive); in the test with OVCAR-3, > 63.7 µM (inactive). In addition, in the test with KM12, the GI50 was > 100 µM (inactive).
Regarding `O=C(Nc1ccccc1)n1cc(-c2ccccn2)c(N2CCOCC2)n1`, the GI50 with HT-29 is 2.69 µM (inactive); in the test on TK-10, > 100 µM (inactive); in the test on Malme-3M, 2.54 µM (inactive); with UACC-62, 5.62 µM (inactive); with OVCAR-8, 46 µM (inactive); with NCI-H460, 4.19 µM (inactive). Moreover, the GI50 in the test with LXFL 529 is 7.89 µM (inactive); in the test with EKVX it was > 100 µM (inactive); in the test on M14, 8.91 µM (inactive); in the test on HL-60, 2.44 µM (inactive); in the test on CCRF-CEM, 5.48 µM (inactive); in the test on SNB-19 it was 9.57 µM (inactive). For the same compound, the GI50 in the test with OVCAR-3 is 2.12 µM (inactive); in the test on KM12, 1.79 µM (inactive).
`CCCOCN1COCN/C1=N\C#N`: the GI50 was 48.2 µM (inactive) with HT-29; > 100 µM (inactive) in the test with TK-10; > 100 µM (inactive) with Malme-3M; > 100 µM (inactive) in the test with UACC-62; > 100 µM (inactive) in the test on OVCAR-8; > 100 µM (inactive) in the test with NCI-H460. Besides, the GI50 in the test with LXFL 529, in the test with EKVX, with M14, in the test on HL-60, in the test with SNB-19 and in the test with OVCAR-3 was > 100 µM (inactive) each time. In addition, the GI50 in the test with KM12 was > 100 µM (inactive).
For `COc1ccccc1/N=N/c1c(-c2ccccc2)nn(C(=O)CC(=O)Nc2cccc(C)c2)c1-c1ccccc1`, the GI50 was 16.4 µM (inactive) in the test with HT-29; 72.1 µM (inactive) in the test on TK-10; 45.6 µM (inactive) in the test with Malme-3M; 38.8 µM (inactive) in the test on UACC-62; 31.2 µM (inactive) with OVCAR-8; 27.2 µM (inactive) in the test with NCI-H460. Moreover, the GI50 in the test on LXFL 529 is 15.4 µM (inactive); with EKVX, 41.2 µM (inactive); in the test with M14, 14.7 µM (inactive); in the test with HL-60, 15.3 µM (inactive); with CCRF-CEM, 15.2 µM (inactive); with SNB-19 it was 27.2 µM (inactive). The GI50 in the test on OVCAR-3 was 16 µM (inactive); in the test with KM12 it was 26.1 µM (inactive).
Consider `Cc1ccc(Sc2ccc(C)cc2[N+](=O)[O-])c([N+](=O)[O-])c1`, for which the GI50 in the test on HT-29 is > 10 µM (inactive); in the test with TK-10 it was > 100 µM (inactive); in the test on Malme-3M, > 100 µM (inactive); with UACC-62, > 100 µM (inactive); in the test with OVCAR-8 it was > 100 µM (inactive); in the test on NCI-H460 it was > 100 µM (inactive). In addition, the GI50 in the test on LXFL 529, with EKVX, in the test with M14, in the test with HL-60, with CCRF-CEM and in the test on SNB-19 was > 100 µM (inactive) in each case. The GI50 with OVCAR-3 and in the test with KM12 was > 100 µM (inactive) in each case.
Consider `CN1C/C(=C\c2ccccc2)C2=NN(C(N)=S)[C@H](c3ccccc3)[C@@H]2C1`, for which the GI50 is 32.9 µM (inactive) in the test on HT-29; > 100 µM (inactive) in the test on SR; > 100 µM (inactive) with TK-10; 36.6 µM (inactive) with Malme-3M; 74.6 µM (inactive) in the test with UACC-62; 50.5 µM (inactive) in the test on NCI-H460. Moreover, the GI50 in the test on LXFL 529 was 29.4 µM (inactive); with EKVX it was > 100 µM (inactive); in the test with M14, 95.1 µM (inactive); with HL-60, 21.7 µM (inactive); in the test with CCRF-CEM, 45.6 µM (inactive); in the test on SNB-19, > 100 µM (inactive). In addition, the GI50 in the test with OVCAR-3 was > 100 µM (inactive); with KM12, 54 µM (inactive).
`Cc1cc(=O)n(-c2ccccc2)c(=O)o1`: the GI50 with HT-29, in the test on SR, in the test on TK-10, in the test on Malme-3M, in the test with UACC-62 and in the test on NCI-H460 was > 100 µM (inactive) each time. Moreover, the GI50 in the test on LXFL 529, in the test with EKVX, with M14, in the test with HL-60, in the test on CCRF-CEM and in the test on SNB-19 was > 100 µM (inactive) throughout. The GI50 in the test with OVCAR-3 and with KM12 was > 100 µM (inactive) throughout.
For the compound `CC1OC(n2cc(C(F)(F)F)c(=O)[nH]c2=O)C=CC1=O` (stereo not given), the GI50 in the test on HT-29 is 24.5 µM (inactive); in the test on SR, 12.7 µM (inactive); with TK-10, 20.9 µM (inactive); in the test with Malme-3M, 18.4 µM (inactive); in the test on UACC-62, 21 µM (inactive); in the test with OVCAR-8, 27.2 µM (inactive). For the same compound, the GI50 in the test on NCI-H460 was 23.5 µM (inactive); in the test with LXFL 529, 17.1 µM (inactive); with M14 it was 22.9 µM (inactive); in the test on HL-60, 18.5 µM (inactive); with SNB-19, 16.4 µM (inactive); with OVCAR-3 it was 17.7 µM (inactive). Moreover, the GI50 with KM12 was 18.5 µM (inactive).
With `COC(=O)C1=C(C(=O)OC)C2C(C)=CC(C)=CN2C(C#N)=C(SC)S1` (stereo not given), the GI50 is 21.1 µM (inactive) with HT-29; 19 µM (inactive) in the test on SR; 35.2 µM (inactive) in the test on TK-10; 24.7 µM (inactive) in the test with Malme-3M; > 10 µM (inactive) with UACC-62; 22.4 µM (inactive) in the test on OVCAR-8. The GI50 with NCI-H460 is > 100 µM (inactive); in the test on LXFL 529, 16.9 µM (inactive); with EKVX it was 25.9 µM (inactive); in the test with M14, 18 µM (inactive); in the test with HL-60, 19.5 µM (inactive); with CCRF-CEM it was 17.4 µM (inactive). For the same compound, the GI50 in the test on SNB-19 is 52.4 µM (inactive); in the test with OVCAR-3, 28.4 µM (inactive).
For the compound `O=C(COc1ccc(Cl)cc1)N1CCN(C(=O)COc2ccc(Cl)cc2)c2ccccc21`, the GI50 is 50.5 µM (inactive) in the test with HT-29; 33.4 µM (inactive) with TK-10; 36.6 µM (inactive) in the test on Malme-3M; 53.2 µM (inactive) with OVCAR-8; 60.7 µM (inactive) in the test on NCI-H460; 37.4 µM (inactive) in the test with LXFL 529. The GI50 in the test on EKVX was 26.3 µM (inactive); in the test with HL-60 it was 13.4 µM (inactive); in the test with CCRF-CEM it was 34 µM (inactive); in the test on OVCAR-3, 54.6 µM (inactive); in the test on KM12, 57 µM (inactive).
Consider `CC12CP(=O)(c3ccccc3)CC1C2(Cl)Cl` (stereo not given), for which the GI50 in the test with HT-29, in the test on TK-10, in the test on UACC-62, in the test on OVCAR-8, in the test with NCI-H460 and in the test with LXFL 529 was > 100 µM (inactive) in each case. The GI50 was > 100 µM (inactive) in the test with EKVX; > 100 µM (inactive) in the test with M14; > 10 µM (inactive) in the test on HL-60; > 100 µM (inactive) in the test with CCRF-CEM; > 100 µM (inactive) in the test with SNB-19; > 100 µM (inactive) with OVCAR-3. In addition, the GI50 with KM12 is > 100 µM (inactive).
On to `CC(=O)Nc1c(Nc2ccccc2)[nH]c(C)nc1=S`, for which the GI50 with TK-10, in the test on Malme-3M, with UACC-62, in the test on OVCAR-8, with NCI-H460 and with LXFL 529 was > 100 µM (inactive) throughout. Further, the GI50 in the test with EKVX, in the test on M14, with HL-60, in the test on CCRF-CEM, in the test on SNB-19 and with OVCAR-3 was > 100 µM (inactive) each time. Moreover, the GI50 with KM12 was > 100 µM (inactive).
For `CCOC(=O)/C(C#N)=C1/C(O)=C(C(=O)OC)C(C(=O)OC)=C1C(=O)OC.c1ccncc1`, the GI50 with HT-29, in the test on TK-10, in the test with Malme-3M, with UACC-62, in the test with OVCAR-8 and with NCI-H460 was > 100 µM (inactive) throughout. The GI50 in the test on LXFL 529, with EKVX, in the test on M14, in the test with HL-60, in the test on CCRF-CEM and in the test with SNB-19 was > 100 µM (inactive) in each case. Moreover, the GI50 in the test on OVCAR-3 and with KM12 was > 100 µM (inactive) each time.
In the case of `Cc1ccc(-c2cc(O)c3cc4c(cc3n2)OCO4)cc1`, the GI50 is 2.18 µM (inactive) with HT-29; 0.973 µM (active) in the test with SR; 7.66 µM (inactive) in the test with TK-10; 0.52 µM (active) in the test with Malme-3M; 0.729 µM (active) in the test on UACC-62; 3.2 µM (inactive) in the test with OVCAR-8. Also, the GI50 with NCI-H460 is 0.82 µM (active); in the test with LXFL 529, 0.748 µM (active); with EKVX it was 4.05 µM (inactive); in the test on M14, 0.817 µM (active); in the test with HL-60, 0.43 µM (active); in the test on CCRF-CEM, 1.05 µM (active). For the same compound, the GI50 in the test with SNB-19 is 3.12 µM (inactive); with OVCAR-3 it was 0.929 µM (active); in the test on KM12, 0.836 µM (active).

(Values after ChEMBL document CHEMBL1201862, “PubChem BioAssay data set” (2004).)
